Laboratory results taken from patent US10517844B2, “Inhibition of proline catabolism for the treatment of cancer and other therapeutic applications” (Buck Institute for Research on Aging, priority 2014, dated 2019).
“Also recorded” adds a separate entry of the source.

Columns and labels:
[1] = test system: DU4475 breast cancer cells; assay: Apoptosis by cleaved PARP Western blot; type: cell-based, human; conditions: DU4475, combined with MI-63
breast cancer models = assay: Interaction of PRODH inhibitors with p53 wt restoration; type: cell-based, human; conditions: various breast cancer models
From the text: Our recent studies have shown that p53 wt restoration by the MDM2 inhibitor MI-63 triggers early and very different mitochondrial bioenergetic and global metabolic pool changes between malignant (e.g., MCF7, ZR-75-1, ZR-75-30, DU4475) and non-malignant (e.g., MCF-10A) mammary epithelial systems (Yau et al. (2011) Amer. Assoc. Cancer Res. 52: a3797, 2011; Yau et al. (2012) Amer. Assoc. Cancer Res. 53: a5160). Having first observed that PRODH siRNA knockdown promotes apoptosis in p53 wt breast cancer cells, we then evaluated PRODH knockdown in combination with MI-63 induced p53 restoration. […] Knockdown of P5CDH (the next enzymatic step in proline catabolism) produced a similar but less pronounced pro-apoptotic response in combination with MI-63, convincing us that PRODH is the most appropriate therapeutic target for synthetic lethality. […] Equally relevant, since PRODH provides a bypass source of mitochondrial glutamate for glutamine-addicted (e.g., GLS1 overexpressing) cancers, particularly those most sensitive to clinically emergent GLS1 inhibitors like CB-839 (Katt and Cerione (2014) Drug Discov. Today, 19: 450-457; Gross et al. (2014) Mol. Cancer Ther. 13: 890-901), our new data also supports the fact that PRODH inhibition induces a synthetic lethal anticancer response in combination with GLS1 inhibition among our various breast cancer models.

DU4475 = assay: Growth inhibition / cell viability, drug combination; type: cell-based, human; conditions: for Growth inhibiting interaction with CB-839: 72 h
PRODH [2] = conditions: cited from earlier work
PRODH [3] = assay: Dietary PPG in adult Drosophila, Sluggish-A phenotype; type: in vivo; conditions: dietary 5 mM x 48 h
MCF10A cells = assay: Cell viability, non-malignant cells; type: cell-based, human
PRODH [4] = molecular target: T1, PRODH (Homo sapiens, UniProt O43272); assay: NADH-generating mitochondrial PRODH bioassay; type: biochemical
T1 construct: Mitochondria freshly isolated from PPG pretreated (15 h) and washed (30 min) ZR-75-1 cells; endogenous in cells; host or cells: mitochondria isolated from ZR-75-1 human breast cancer cells
T1 sequence (O43272 1-600): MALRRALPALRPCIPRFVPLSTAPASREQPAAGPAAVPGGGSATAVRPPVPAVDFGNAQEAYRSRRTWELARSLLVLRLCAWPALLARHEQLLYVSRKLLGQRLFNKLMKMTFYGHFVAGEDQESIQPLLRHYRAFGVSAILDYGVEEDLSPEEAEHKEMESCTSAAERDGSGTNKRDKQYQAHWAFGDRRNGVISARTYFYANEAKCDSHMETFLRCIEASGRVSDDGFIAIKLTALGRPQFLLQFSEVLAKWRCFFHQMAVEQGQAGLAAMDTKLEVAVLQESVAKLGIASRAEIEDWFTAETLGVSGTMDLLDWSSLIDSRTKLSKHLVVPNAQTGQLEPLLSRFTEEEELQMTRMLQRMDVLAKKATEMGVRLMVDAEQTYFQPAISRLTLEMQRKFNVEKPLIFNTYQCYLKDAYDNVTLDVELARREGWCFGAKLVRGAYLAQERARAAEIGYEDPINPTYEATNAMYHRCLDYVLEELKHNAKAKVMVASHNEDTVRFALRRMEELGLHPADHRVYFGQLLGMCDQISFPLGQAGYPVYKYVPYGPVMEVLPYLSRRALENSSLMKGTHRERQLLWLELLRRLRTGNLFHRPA
From the text: Mitochondrial PRODH bioassays capable of measuring inhibitor activity are described in Goncalves et al. (2014) Redox Biol. 2: 901-909 (which is hereby incorporated by reference herein for this description). These include, inter alia: i) spectrophotometric detection of OAB reacted with proline generated P5C, ii) dual wavelength spectrophotometric detection (A566-A575) of endogenous cytochrome b566 reduction that occurs directly upon mitochondrial PRODH oxidation of proline, and iii) fluorescence spectrometry detection (lex 340 nm, lem 460 nm) of mitochondrial NADH levels as a function of substrate and inhibitor treatment. See details in Example below. The mitochondrial PRODH assay is described therein detects mitochondrial NADH production resulting downstream from PRODH production of P5C and then glutamate, while controlling for other sources of mitochondrial NADH production.
We have optimized our mitochondrial preparation technique and developed three different mitochondrial PRODH bioassays capable of measuring inhibitor activity which are now reported (Goncalves et al. (2014) Redox Biol. 2: 901-909); these include: i) spectrophotometric detection of OAB reacted with proline generated P5C, ii) dual wavelength spectrophotometric detection (A566-A575) of endogenous cytochrome b566 reduction that occurs directly upon mitochondrial PRODH oxidation of proline, and iii) fluorescence spectrometry detection (lex 340 nm, lem 460 nm) of mitochondrial NADH levels as a function of substrate and inhibitor treatment.
Briefly, in an exemplary protocol, cells are harvested from 2 to 4500 cm^2 dishes at 90% confluence, washed three times in ice-cold STE (250 mM sucrose, 5 mM Tris-HCl, 2 mM EGTA, pH7.4), scraped off, suspended in 50 ml STE and centrifuged for 10 min at 500 g. The pellet is resuspended in STE supplemented with 1% (w/v) fatty acid-free bovine serum albumin and homogenized (up to 20 strokes). The suspension is brought to 50 ml and centrifuged for 5 min at 1000 g. The supernatant is centrifuged for 10 min at 11,000 g. The pellet is resuspended in STE and centrifuged for 10 min at 10,000 g. The mitochondrial pellet is resuspended in STE and kept on ice. Protein is determined by Bradford assay(Biorad).
NAD(P)H is measured using 0.3 mg mitochondrial protein/ml at 37° C. in KHEPMB (KHE containing 5 mM K2HPO4, 2 mM MgCl2, 0.3% (w/v) fatty acid-free bovine serum albumin) plus 1 mM ADP and 2.5 μg/ml oligomycin. The reduction state of endogenous NAD(P)H Is determined by autofluorescence using the Pherastar microplate reader at λexcitation=340 nm, λemission=460 nm. NAD(P)H was assumed to be 0% reduced after 5 min without added substrate, then rotenone was added. The 100% reduced level was established with saturating substrate (e.g., 5 mM malate, glutamate and proline) and 4 μM rotenone. Intermediate values were determined as % reduced NAD(P)H relative to the 0% and 100% values.
For screening purposes, the NADH fluorescence bioassay can be routinely used as it is the most sensitive and amenable to higher throughput.

ZR-75-1 = assay: Protein degradation in treated culture (Western blot); type: cell-based, human
MCF7 = assay: Growth inhibition / cell viability, drug combination; type: cell-based, human; conditions: for Cell viability, interaction with CB-839: MCF7, single dose, 48 h; for Growth inhibiting interaction with CB-839: 72 h
[5] = test system: multiple breast cancer cell lines; assay: Growth inhibition in combination with CB-839; type: cell-based, human
Drosophila = Drosophila lifespan after dietary PPG during oogenesis; type: in vivo; conditions: dietary 5 mM x 24 h during oogenesis, 2nd day collected eggs, 70 days
Description: Female Drosophila were starved for 4 h, then combined with males on liquid 5% sucrose food with or without 5 mM PPG. After 24 h, females were transferred to egg collection containers, and eggs collected after 1, 2, and 3 days. Collected eggs were transferred to bottles of regular food, separately for each collection day. Larvae developed normally, were transferred to vials after eclosion; vials were exchanged thrice weekly throughout life.

[6] = test system: malignant breast epithelial cells; assay: Protein levels after p53 restoration by MI-63; type: cell-based, human
From the text: New cancer treatments based on the restoration or reactivation of p53 wt function were first envisioned over a decade ago, and multiple pharmacological strategies have since emerged from preclinical studies that now show great clinical promise (12-17), particularly against malignancies like breast cancers in which 75% of all newly diagnosed cases express wildtype p53 (TCGA Network (2012). Nature 490: 61-70). […] Likewise, p53 induced metabolic changes linking proline metabolism to the urea cycle (OAT) and to glutaminolysis (GLS2) and the TCA cycle have been observed in our model systems (Yau et al. (2012) Amer. Assoc. Cancer Res. 53: a5160).

ZR75-1 = assay: Growth inhibition, drug combination; type: cell-based, human; conditions: for Growth inhibiting interaction with CB-839: 72 h
BT474 = assay: Growth inhibition, drug combination; type: cell-based, human; conditions: for Growth inhibiting interaction with CB-839: 72 h
[7] = ZR-75-1 cells pretreated 15 h, washed 30 min

O=C(O)[C@@H]1CCCO1 [L-THFA, L-tetrahydro-2-furoic acid]
Apoptosis (c PARP production) over MI-63 treatment alone [1]: ~4 fold
Interaction with p53 wt restoration (breast cancer models): synthetic lethal interactions
Viable cell growth in culture (DU4475; DU4475, combined with MI-63): synthetic lethality effectiveness; also recorded: synergistically reduces viable cell growth
Ki (PRODH [2]): 300 µM

C#CCNCC(=O)O [PPG, N-propargylglycine]
Fly viability (PRODH [3]): without loss of fly viability
PRODH inhibition in vivo (Sluggish-A phenotype) (PRODH [3]): completely inhibits PRODH in vivo
Cell viability / growth inhibition in non-malignant cells (MCF10A cells; combined with CB-839): no treatment effects; also recorded: lack of any growth inhibition
PRODH enzymatic inhibition compared at equimolar inhibitor concentration (PRODH [4]; 2 mM): significantly greater PRODH enzymatic inhibition over S-5-oxo
Malate metabolism (NADH formation) by isolated mitochondria (PRODH [4]; [7]): not affected; also recorded: fully capable of metabolizing malate
Proline metabolism (NADH formation) by isolated mitochondria (PRODH [4]; [7]): remain unable to metabolize proline; also recorded: remained completely unable to metabolize proline
Interaction with p53 wt restoration (breast cancer models): synthetic lethal interactions
Time of exposure to PRODH protein degradation (ZR-75-1): ≤ 24 h
Cytoplasmic FAD containing protein MTHFR decline (ZR-75-1; ZR-75-1, 24-72 h): does not
Mitochondrial complex-1 protein NDUFS1 level (ZR-75-1; ZR-75-1, 24-72 h): also declines
Degradation of PRODH protein (ZR-75-1; ZR-75-1 culture treatment, within 24-72 h): 30-60%
Cell viability, interaction with CB-839 (MCF7): additive interactions
Growth inhibition in combination with CB-839 ([5]; within 48 h): additive growth inhibition
Growth inhibition in combination with CB-839 ([5]; within 72 h): synergistic growth inhibition
Median and maximum lifespan (Drosophila): significantly extends median and maximum lifespan

CC(C)(C)C[C@H]1N[C@@H](C(=O)NCCN2CCOCC2)[C@H](c2cccc(Cl)c2F)[C@@]12C(=O)Nc1cc(Cl)ccc12 [MI-63]
Induction of PRODH protein levels [6]: ≥ 5 fold
P5C reductase (PYCR1) levels [6]: coordinate decrease
P5CDH protein level [6]: no change

C#CC(C)NCC(=O)O (racemic) [(R/S)-PPG]
PRODH inhibiting activity (PRODH [4]; mitochondrial PRODH assay): retains PRODH inhibiting activity

COc1ccc(C2=N[C@@H](c3ccc(Cl)cc3)[C@@H](c3ccc(Cl)cc3)N2C(=O)N2CCNC(=O)C2)c(OC(C)C)c1 [Nutlin-3a, reference compound]
Growth inhibiting interaction with CB-839 (ZR75-1; ZR75-1, +Nutlin-3a (5 μM)): Additive
Growth inhibiting interaction with CB-839 (DU4475; DU4475, +Nutlin-3a (5 μM)): Synergistic
Growth inhibiting interaction with CB-839 (MCF7; MCF7, +Nutlin-3a (5 μM)): Additive
Growth inhibiting interaction with CB-839 (BT474; BT474, +Nutlin-3a (5 μM)): No interaction

O=C1CC[C@@H](C(=O)O)O1 [Compound 5-oxo, (S)-(+)-5-oxo-2-tetrahydrofurancarboxylic acid]
Cell viability / growth inhibition in non-malignant cells (MCF10A cells; combined with CB-839): no treatment effects
Cell viability / growth inhibition in non-malignant cells (MCF10A cells; combined with CB-839, listed as S-5-oxo): lack of any growth inhibition
S versus R isomers in mitochondrial PRODH bioassay (PRODH [4]): stereospecificity of S-5-oxo
PRODH enzymatic inhibition after washout (PRODH [4]; same washout (30 min)): completely lost (reversed); also recorded: completely lost by washout
Treatment interaction (ZR75-1; ZR75-1, 5-oxo (1 μM) + CB839 (1 μM)): Synergistic
Growth inhibiting interaction with CB-839 (ZR75-1; ZR75-1, +5-oxo (5 mM)): Synergistic
Interaction with p53 wt restoration (breast cancer models): synthetic lethal interactions
Treatment interaction (DU4475; DU4475, 5-oxo (1 μM) + CB839 (1 μM)): Synergistic
Growth inhibiting interaction with CB-839 (DU4475; DU4475, +5-oxo (5 mM)): Synergistic
Treatment interaction (MCF7; MCF7, 5-oxo (1 μM) + CB839 (1 μM)): Synergistic
Growth inhibiting interaction with CB-839 (MCF7; MCF7, +5-oxo (5 mM)): Synergistic
Cell viability, interaction with CB-839 (MCF7): additive interactions
Treatment interaction (BT474; BT474, 5-oxo (1 μM) + CB839 (1 μM)): Additive
Growth inhibiting interaction with CB-839 (BT474; BT474, +5-oxo (5 mM)): Additive
Growth inhibition in combination with CB-839 ([5]; within 48 h): additive growth inhibition
Growth inhibition in combination with CB-839 ([5]; within 72 h): synergistic growth inhibition
